Results published in patent US10766899B2, “Methods for preparing substituted imidazo[4,5-b]pyrazines” (Cytokinetics, Inc., priority 2006, dated 2020).

The compounds below were run on rats with induced experimental autoimmune myasthenia gravis (EAMG) (assay: Validation of EAMG model (neostigmine), grip strength). Settings: 0.2 mg/kg intraperitoneally, 5 minutes after treatment.
Assay type: in vivo, Sprague-Dawley rats
Procedure: Female Sprague-Dawley rats (200-300 g) were purchased from Charles River Laboratories and given a minimum 72 hours acclimation period. Experimental autoimmune Myasthenia Gravis (EAMG) was induced by a single intra-peritoneal injection of 500 μg/kg of AChRα1/3/5 antibody (SC-58604, Santa Cruz Biotechnology, CA, USA). Fore- and hind-limb grip measurements were acquired in triplicate with a 5 kg Dual Sensor Grip Meter (Columbus Instruments, Ohio, USA) as described in Example 1. Baseline body weight and fore- and hind-grip strength of animals was measured before inducing EAMG.
Selected rats were divided into vehicle and compound treated groups. Neostigmine (an acetylcholinesterase inhibitor that is used clinically for the assessment and treatment of myasthenia gravis) was administered to test animals intraperitoneally at 0.2 mg/kg. After dosing, rats were reassessed for grip strength at 5, 10 and 20 minutes.
In the case of `CN(C)C(=O)Oc1cccc([N+](C)(C)C)c1` [neostigmine], the “forelimb grip strength (FIG. 2)” value is reported as “increased forelimb grip strength”.

Each compound was assayed on SKM MF (assay: SKM MF AC1.4: ATPase of skeletal sarcomeric proteins (actin, tropomyosin, troponin complex, myosin), PK/LDH coupled enzyme system). Settings: screen at pCa=6.5; † mean value, ‡ median value.
Assay type: biochemical
Procedure: For example, test compounds can be assayed in a highly parallel fashion by using multiwell plates by placing the compounds either individually in wells or testing them in mixtures. Assay components including the target protein complex, coupling enzymes and substrates, and ATP can then be added to the wells and the absorbance or fluorescence of each well of the plate can be measured with a plate reader.
In some embodiments, the method uses a 384 well plate format and a 25 μL reaction volume. A pyruvate kinase/lactate dehydrogenase coupled enzyme system (Huang T G and Hackney D D. (1994) J Biol Chem 269(23):16493-501) can be used to measure the rate of ATP hydrolysis in each well. As will be appreciated by those in the art, the assay components are added in buffers and reagents. The incubation periods can be optimized to give adequate detection signals over the background. The assay can be done in real time giving the kinetics of ATP hydrolysis which increases the signal to noise ratio of the assay.
Actin was purified by first preparing an ether powder of cardiac muscle (Zot H G and Potter J D. (1981) Preparative Biochemistry 11:381-395) as described below. Subsequently, actin was cycled between the filamentous and soluble state through rounds of centrifugation and dialysis (Spudich J A and Watt S. (1971) J. Biol. Chem. 246:4866-4871). It was stored in the filamentous state at 4° C.
Tropomyosin was extracted from the ether powder and separated from the other proteins based on pH dependent precipitations followed by successive ammonium sulfate cuts at 53% and 65% (Smillie L B. (1981) Methods Enzymol 85 Pt B:234-41). The troponins were isolated as an intact complex of TnC, TnT, and TnI. Ether powder is extracted in a high salt buffer. Successive ammonium sulfate cuts of 30% and 45% were done; the precipitate was solubilized by dialysis into a low salt buffer and then further purified on a DEAE Toyopearl column with a 25-350 mM KCl gradient.
Just prior to screening, the actin, tropomyosin, and troponin complex are mixed together in the desired ratio (e.g., 7:1:1) to achieve maximal calcium regulation of the actin filament. The screen is conducted at a pCa=6.5. This calcium concentration is in the physiological range during muscle contraction.
To measure the generation of ADP during the reaction, a pyruvate kinase/lactate dehydrogenase/NADH coupled enzyme system (PK/LDH) is added to the actin. The myosin is kept separately. The plates are read in real time so that kinetic curves are obtained. These compounds are in DMSO and were already spotted onto the bottoms of 384 well plates at 10 to 40 μg/ml final concentration.
• 1. Obtain ˜1000 g skeletal muscle, such as rabbit skeletal muscle. • 2. Grind twice; extract with 2 L solution A for 15 min while stirring; add 4 L cold H2O, filter through gauze; dilute with cold H2O to ionic strength of 0.04, (about 10-fold); let settle for 3 h; collect precipitate at 7,000 rpm in GSA rotor for 15 min. • 3. Disperse pellet in 220 ml solution B; dialyze overnight against 6 L solution C; slowly add ˜400 ml equal volume cold distilled H2O; stir for 30 min; centrifuge at 10,000 rpm for 10 min in GSA rotor. • 4. Centrifuge supernatant at 19,000 rpm for 1 h. • 5. Dilute supernatant to ionic strength of 0.04 (˜8-fold); let myosin settle overnight; collect about 5-6 L fluffy myosin precipitate by centrifuging at 10,000 rpm for 10 min in GSA rotor. • 6. Resuspend pellet in minimal volume of solution G; dialyze overnight against 2 L solution D; centrifuge at 19,000 rpm for 2 h, in cellulose nitrate tubes; puncture tubes and separate myosin from fat and insoluble pellet. • 7. Dilute supernatant to 5-10 mg/ml and dialyze against solution E extensively, load onto DEAE-sephadex column. • 8. […]
For `CC[C@@H](CO)n1c(O)nc2ncc(Br)nc21` [(S)-6-bromo-1-(1-hydroxybutan-2-yl)-1H-imidazo[4,5-b]pyrazin-2-ol], the “SKM MF AC1.4” value was 19.1 µM.
In the case of `C/C=C\c1cnc2nc(O)n(C(CC)CC)c2n1` [(Z)-1-(pentan-3-yl)-6-(prop-1-enyl)-1H-imidazo[4,5-b]pyrazin-2-ol], the “SKM MF AC1.4” value is reported as 0.6 µM.
In the case of `C/C=C/c1cnc2nc(O)n(C3CCCCC3)c2n1` [(E)-1-cyclohexyl-6-(prop-1-enyl)-1H-imidazo[4,5-b]pyrazin-2-ol], the “SKM MF AC1.4” value is reported as 6.1 µM.
`CCC/C=C\Cc1cnc2nc(O)n([C@@H](C)c3ccccc3)c2n1` [(S,Z)-6-(hex-2-enyl)-1-(1-phenylethyl)-1H-imidazo[4,5-b]pyrazin-2-ol] was tested, and the “SKM MF AC1.4” value was 3.1 µM.
In the case of `Oc1nc2ncc(Br)nc2n1Cc1ccccc1` [1-benzyl-6-bromo-1H-imidazo[4,5-b]pyrazin-2-ol], the “SKM MF AC1.4” value is reported as 23.5 µM.
`C/C=C\c1cnc2nc(O)n(C(C)C)c2n1` [(Z)-1-isopropyl-6-(prop-1-enyl)-1H-imidazo[4,5-b]pyrazin-2-ol] was tested, and the “SKM MF AC1.4” value was 4.6 µM.
With `CSc1cnc2nc(O)n(C3CCCCC3)c2n1` [1-cyclohexyl-6-(methylthio)-1H-imidazo[4,5-b]pyrazin-2-ol] the “SKM MF AC1.4” value was 13.9 µM.
`CC#Cc1cnc2nc(O)n(C(CC)CC)c2n1` [1-(pentan-3-yl)-6-(prop-1-ynyl)-1H-imidazo[4,5-b]pyrazin-2-ol] was tested, and the “SKM MF AC1.4” value was over 49 µM.
`CCC(CC)n1c(O)nc2nc(Br)cnc21` [5-bromo-1-(pentan-3-yl)-1H-imidazo[4,5-b]pyrazin-2-ol] was tested, and the “SKM MF AC1.4” value was 11.5 µM.
`CCC(CN1CCN(S(C)(=O)=O)CC1)n1c(O)nc2ncc(Br)nc21` (centres unmarked) [6-bromo-1-(1-(4-(methylsulfonyl)piperazin-1-yl)butan-2-yl)-1H-imidazo[4,5-b]pyrazin-2-ol] was tested, and the “SKM MF AC1.4” value was 3.2^† μM.
In the case of `CCC(CC)n1c(O)nc2ncc(C(F)(F)F)nc21` [1-(pentan-3-yl)-6-(trifluoromethyl)-1H-imidazo[4,5-b]pyrazin-2-ol], the “SKM MF AC1.4” value is reported as 10.4^‡ μM.
For `C[C@@H](c1ccccc1)n1c(O)nc2ncc(C3=CCCCC3)nc21` [(S)-6-cyclohexenyl-1-(1-phenylethyl)-1H-imidazo[4,5-b]pyrazin-2-ol], the “SKM MF AC1.4” value was 31.0 µM.
In the case of `C[C@@H](CN1CCOCC1)n1c(O)nc2ncc(Br)nc21` [(S)-6-bromo-1-(1-morpholinopropan-2-yl)-1H-imidazo[4,5-b]pyrazin-2-ol], the “SKM MF AC1.4” value is reported as over 49 µM.
For `C=Cc1cnc2nc(O)n(C(CC)CC)c2n1` [1-(ethylpropyl)-6-vinylimidazo[4,5-b]pyrazin-2-ol], the “SKM MF AC1.4” value was 2.3 µM.
With “1-(ethylpropyl)-6-(methylethyl)imidazo[4,5-b]pyrazin-2-ol” the “SKM MF AC1.4” value was 29.6 µM.
`CCC(C(=O)N1CCOCC1)n1c(O)nc2ncc(Br)nc21` (centres unmarked) [2-(6-bromo-2-hydroxy-1H-imidazo[4,5-b]pyrazin-1-yl)-1-morpholinobutan-1-one] was tested, and the “SKM MF AC1.4” value was over 49 µM.
With `CC[C@H](C)n1c(O)nc2ncc(Br)nc21` [(S)-6-bromo-1-sec-butyl-1H-imidazo[4,5-b]pyrazin-2-ol] the “SKM MF AC1.4” value was 0.8 µM.
For “1-(ethylpropyl)-6-{2-[1-(ethylpropyl)-2-hydroxyimidazo[4,5-e]pyrazin-6-yl]ethynyl}imidazo[4,5-b]pyrazin-2-ol”, the “SKM MF AC1.4” value was 19.32 µM.
`CC[C@@H](CN1CCOCC1)n1c(O)nc2ncc(Br)nc21` [(S)-6-bromo-1-(1-morpholinobutan-2-yl)-1H-imidazo[4,5-b]pyrazin-2-ol] was tested, and the “SKM MF AC1.4” value was over 49 µM.
With `CCC(CC)n1c(O)nc2ncc(SC)nc21` [6-(methylthio)-1-(pentan-3-yl)-1H-imidazo[4,5-b]pyrazin-2-ol] the “SKM MF AC1.4” value was 0.4 µM.
`COc1cnc2nc(O)n([C@@H](C)c3ccccc3)c2n1` [(S)-6-methoxy-1-(1-phenylethyl)-1H-imidazo[4,5-b]pyrazin-2-ol] was tested, and the “SKM MF AC1.4” value was 8.8 µM.
With `CCC(CC)n1c(O)nc2ncc(C#N)nc21` [2-hydroxy-1-(pentan-3-yl)-1H-imidazo[4,5-b]pyrazine-6-carbonitrile] the “SKM MF AC1.4” value was 36.4 µM.
`CCC(CN1CCN(C)CC1)n1c(O)nc2ncc(Br)nc21` (centres unmarked) [6-bromo-1-(1-(4-methylpiperazin-1-yl)butan-2-yl)-1H-imidazo[4,5-b]pyrazin-2-ol] was tested, and the “SKM MF AC1.4” value was 14.9 µM.
`CSc1cnc2nc(O)n(Cc3ccccc3)c2n1` [1-benzyl-6-(methylthio)-1H-imidazo[4,5-b]pyrazin-2-ol] was tested, and the “SKM MF AC1.4” value was 22.6 µM.
With `C/C=C\c1cnc2nc(O)n([C@@H](C)c3ccccc3)c2n1` [(S,Z)-1-(1-phenylethyl)-6-(prop-1-enyl)-1H-imidazo[4,5-b]pyrazin-2-ol] the “SKM MF AC1.4” value was 1.0 µM.
For `CCC(CC)n1c(O)nc2nccnc21` [1-(pentan-3-yl)-1H-imidazo[4,5-b]pyrazin-2-ol], the “SKM MF AC1.4” value was 16.0^† μM.
For “6-(1H-1,2,3-triazol-4-yl)-1-(ethylpropyl)imidazo[4,5-b]pyrazin-2-ol”, the “SKM MF AC1.4” value was 46.64 µM.
In the case of `C[C@H](c1ccccc1)n1c(O)nc2ncc(Br)nc21` [(R)-6-bromo-1-(1-phenylethyl)-1H-imidazo[4,5-b]pyrazin-2-ol], the “SKM MF AC1.4” value is reported as 2.4 µM.
`CCC(CN)n1c(O)nc2ncc(Br)nc21` (centres unmarked) [1-(1-aminobutan-2-yl)-6-bromo-1H-imidazo[4,5-b]pyrazin-2-ol] was tested, and the “SKM MF AC1.4” value was 1.1 µM.
`C/C=C/c1cnc2nc(O)n([C@@H](C)c3ccccc3)c2n1` [(S,E)-1-(1-phenylethyl)-6-(prop-1-enyl)-1H-imidazo[4,5-b]pyrazin-2-ol] was tested, and the “SKM MF AC1.4” value was 1.6 µM.
With `CCC(COC)n1c(O)nc2ncc(Br)nc21` (centres unmarked) [6-bromo-1-(1-methoxybutan-2-yl)-1H-imidazo[4,5-b]pyrazin-2-ol] the “SKM MF AC1.4” value was 4.9 µM.
With `C#Cc1cnc2nc(O)n([C@H](CC)CN3CCOCC3)c2n1` [1-[(1R)-1-(morpholin-4-ylmethyl)propyl]-6-ethynylimidazo[4,5-b]pyrazin-2-ol] the “SKM MF AC1.4” value was 0.13 µM.

Same assay, conditions: screen at pCa=6.5; † mean value, ‡ median value; listed as 1-(ethylpropyl)-6-(trifluoromethyl)imidazo[4,5-b]pyrazin-2-ol
With `CCC(CC)n1c(O)nc2ncc(C(F)(F)F)nc21` [1-(pentan-3-yl)-6-(trifluoromethyl)-1H-imidazo[4,5-b]pyrazin-2-ol] the “SKM MF AC1.4” value was 10.37 µM.

Same assay, conditions: screen at pCa=6.5; † mean value, ‡ median value; listed as 1-(pentan-3-yl)-6-(trifluoromethyl)-1H-imidazo[4,5-b]pyrazin-2(3H)-one
In the case of `CCC(CC)n1c(O)nc2ncc(C(F)(F)F)nc21` [1-(pentan-3-yl)-6-(trifluoromethyl)-1H-imidazo[4,5-b]pyrazin-2-ol], the “SKM MF AC1.4” value is reported as 10.4^‡ μM.
